Assay results as given in US11957759B1, “Rapidly accelerated fibrosarcoma (RAF) degrading compounds and associated methods of use” (Arvinas Operations, Inc., priority 2022, dated 2024).

What was measured:
Assay type in all cases: cell-based
B-RAF V600E [1] = target: T1, B-RAF V600E (Homo sapiens, UniProt P15056, V600E); test: Target protein degradation, assay A: T-Rex 293 cells, HA-B-RAF_V600E, 96 well format; conditions: T-Rex 293 HA-B-RAF_V600E cells, 24 hours, Examples 1-82
T1 construct: expressed in transfected cells; host or cells: T-Rex 293 cells (Invitrogen #R71007)
Experimental: A. T-Rex 293 Cells (96 well format)
T-Rex 293 cells were purchased from Invitrogen (#R71007), and stably transfected with a pcDNA4/TO_HA-B-RAF_V600E construct, using 400 ug Zeocin for selection. V600e cells are plated in ulbecco's Modified Eagle Medium (DMEM; Gibco #11965118) containing 10% fetal bovine serum (FBS; Gibco #16000044) and 1 ng/mL doxycycline (Selleckchem #4163) at a density of 5,000 cells/well in 50 μl on poly-D-lysine (PDL) coated, black clear bottom 96-well plates (Corning #354640) and incubated for 24 hours at 37° C. with 5% CO2. The following day 50 ul of tested compound was added at 2× concentration in DMEM with a final concentration ranging from 1 μM to 0.1 nM in 0.1% dimethylsulfoxide (DMSO), and incubated for 24 hours at 37° C. with 5% CO2. At the end of the experimental treatment, the media was flicked off and cells washed once with phosphate-buffered saline (PBS)++(PBS with CaCl and MgCl) and gently replacing with 200 μl PBS++ per well. The PBS++ was removed and 50 uL 4% paraformaldehyde (PFA; EMS #15710) in PBS++ was added, and incubate at room temperature for 15 minutes. Cells were washed once with PBS++ and 50 uL 0.1% Triton X-100 (Fisher #BP151-500) in PBS++ was added. Plate was incubate for 5 minutes at room temperature. Cells were was once with PBS++. Cells were blocked with 100 uL Licor blocking buffer (Licor #927-50000) for 1 hour at room temperature. Next, 50 uL of HA antibody (CST #3724) at 1:1000 in Licor blocking buffer was added, and the plate icubate overnight at 4° C. The plates were parafilmed to prevent evaporation. Plate was washed three times with 200 uL PBS++. Fifty microliters of HCS secondary antibody solution [1:1000 Hoechst (Invitrogen #H3570), 1:1000 phalloidin (Invitrogen #A22287) and 1:5000 Alexa fluor (Invitrogen #A11008)] was added and incubated for 1 hour. Plate was wash three times with 200 uL PBS++, and imaged on a high content reader (ImageXpress Micro XLS, Molecular Devices).
(§1) The concentration of an exemplary compound that leads to half maximal degradation (DC50) as well as the maximum degradation observed (Dmax, conventionally expressed as a percentage of control) is shown below in Table 2.

B-RAF G466V [2] = target: T2, B-RAF G466V (Homo sapiens, UniProt P15056, G466V); test: Target protein degradation, assay B: T-Rex 293 cells, HA-B-RAF_G466V, 96 well format; conditions: T-Rex 293 HA-B-RAF_G466V cells, 24 hours, Examples 1-82
T2 construct: expressed in transfected cells; host or cells: T-Rex 293 cells (Invitrogen #R71007)
Experimental: B. T-Rex 293 Cells (96 Well Format)
T-Rex 293 cells were purchased from Invitrogen (#R71007), and stably transfected with a pcDNA4/TO_HA-B-RAF_G466V construct, using 400 ug Zeocin for selection. G466V cells are plated in ulbecco's Modified Eagle Medium (DMEM; Gibco #11965118) containing 10% fetal bovine serum (FBS; Gibco #16000044) and 0.75 ng/mL doxycycline (Selleckchem #4163) at a density of 5,000 cells/well in 50 μl on poly-D-lysine (PDL) coated, black clear bottom 96-well plates (Corning #354640) and incubated for 24 hours at 37° C. with 5% CO2. The following day 50 ul of tested compound was added at 2× concentration in DMEM with a final concentration ranging from 30 nM to 3 pM in 0.1% dimethylsulfoxide (DMSO), and incubated for 24 hours at 37° C. with 5% CO2. At the end of the experimental treatment, the media was flicked off and cells washed once with phosphate-buffered saline (PBS)++(PBS with CaCl and MgCl) and gently replacing with 200 μl PBS++ per well. The PBS++ was removed and 50 uL 4% paraformaldehyde (PFA; EMS #15710) in PBS++ was added, and incubate at room temperature for 15 minutes. Cells were washed once with PBS++ and 50 uL 0.1% Triton X-100 (Fisher #BP151-500) in PBS++ was added. Plate was incubate for 5 minutes at room temperature. Cells were was once with PBS++. Cells were blocked with 100 uL Licor blocking buffer (Licor #927-50000) for 1 hour at room temperature. Next, 50 uL of HA antibody (CST #3724) at 1:1000 in Licor blocking buffer was added, and the plate icubate overnight at 4° C. The plates were parafilmed to prevent evaporation. Plate was washed three times with 200 uL PBS++. Fifty microliters of HCS secondary antibody solution [1:1000 Hoechst (Invitrogen #H3570), 1:1000 phalloidin (Invitrogen #A22287) and 1:5000 Alexa fluor (Invitrogen #A11008)] was added and incubated for 1 hour. Plate was wash three times with 200 uL PBS++, and imaged on a high content reader (ImageXpress Micro XLS, Molecular Devices).
as §1

B-RAF V600E [3] = target: T1, B-RAF V600E; test: Target protein degradation, assay C: T-Rex 293 cells, HA-BRAF_V600E, 384 well format; conditions: T-Rex 293 HA-BRAF_V600E cells, 24 hours, Examples 83-269; for DC50: Assay C; for Dmax: T-REx-293, Assay C
In short: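 After 24 h exposure to an 11-point 1:3 series (300 nM–5 pM, 0.5% DMSO), fixed T-Rex 293 cells carrying HA-BRAF V600E (induced with 1 ng/mL doxycycline) were stained anti-HA and imaged. DC50 and Dmax were derived from BRAF intensity relative to control, and cytotoxicity from nuclear counts.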

B-RAF G466V [4] = target: T2, B-RAF G466V; test: Target protein degradation, assay D: T-Rex 293 cells, HA-BRAF_G466V, 384 well format; conditions: T-Rex 293 HA-BRAF_G466V cells, 24 hours, Examples 83-269; for DC50: Assay D; for Dmax: T-REx-293, Assay D
In short: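 Degradation measured by high-content imaging of anti-HA immunofluorescence in fixed T-Rex 293 cells carrying inducible HA-BRAF G466V (1 ng/mL doxycycline), after 24 h PROTAC exposure at 37 °C over 300 nM–5 pM (1:3, 11 points, 0.5% DMSO). Outputs DC50 and Dmax as % of control; nuclei counts against DMSO wells gauge toxicity.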

T1 sequence (P15056 whole entry V600E): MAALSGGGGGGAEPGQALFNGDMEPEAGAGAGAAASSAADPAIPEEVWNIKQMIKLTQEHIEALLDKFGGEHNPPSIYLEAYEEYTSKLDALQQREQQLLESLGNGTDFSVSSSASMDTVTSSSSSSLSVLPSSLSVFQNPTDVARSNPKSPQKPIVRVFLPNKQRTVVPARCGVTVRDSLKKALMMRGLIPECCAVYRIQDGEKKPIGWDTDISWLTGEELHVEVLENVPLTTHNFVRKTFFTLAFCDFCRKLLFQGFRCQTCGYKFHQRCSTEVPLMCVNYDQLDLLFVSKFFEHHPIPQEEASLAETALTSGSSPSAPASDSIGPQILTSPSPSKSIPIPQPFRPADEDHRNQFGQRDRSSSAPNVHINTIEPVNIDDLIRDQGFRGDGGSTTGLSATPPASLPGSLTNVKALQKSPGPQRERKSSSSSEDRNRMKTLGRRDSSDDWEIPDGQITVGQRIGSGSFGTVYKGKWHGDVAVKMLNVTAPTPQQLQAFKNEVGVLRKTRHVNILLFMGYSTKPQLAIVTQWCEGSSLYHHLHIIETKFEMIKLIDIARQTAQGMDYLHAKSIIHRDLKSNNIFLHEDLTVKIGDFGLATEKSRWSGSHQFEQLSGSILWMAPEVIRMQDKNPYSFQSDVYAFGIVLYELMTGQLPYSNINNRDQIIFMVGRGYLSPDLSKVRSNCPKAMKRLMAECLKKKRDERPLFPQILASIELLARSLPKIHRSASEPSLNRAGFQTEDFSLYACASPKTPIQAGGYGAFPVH
T2 sequence (P15056 whole entry G466V): as the sequence (P15056 whole entry V600E) above, with G466V, E600V counted along it

| Structure (SMILES) | DC50 (B-RAF V600E [1]) [µM] | Dmax (B-RAF V600E [1]) [%] | DC50 (B-RAF G466V [2]) [µM] | Dmax (B-RAF G466V [2]) [%] | DC50 (B-RAF V600E [3]) [µM] | Dmax (B-RAF V600E [3]) [%] | DC50 (B-RAF G466V [4]) [µM] | Dmax (B-RAF G466V [4]) [%] |
| --- | --- | --- | --- | --- | --- | --- | --- | --- |
| N#Cc1c(NS(=O)(=O)N2CC[C@@H](F)C2)ccc(F)c1Oc1ccc2ncn(-c3ccc(N4CCN(CC5CCN(c6ccc(C7CCC(=O)NC7=O)cc6F)CC5)CC4)nc3)c(=O)c2c1 (stereo partly drawn) [Example 14, (3R)-N-{2-cyano-3-[(3-{6-[4-({1[4-(2,6-dioxopiperidin-3-yl)-2-fluorophenyl]piperidin-4-yl}methyl)piperazin-1-yl]pyridin-3-yl}-4-oxo-3,4-dihydroquinazolin-6-yl)oxy]-4-fluorophenyl}-3-fluoropyrrolidine-1-sulfonamide] | 0.05 to 0.5 | 35 to 70 | > 0.03 | – | – | – | – | – |
| N#Cc1c(NS(=O)(=O)N2CC[C@@H](F)C2)ccc(F)c1Oc1ccc2ncn(-c3ccc(N4CCN(CCN5CCN(c6ccc7c(c6)CN(C6CCC(=O)NC6=O)C7=O)CC5)CC4)cc3)c(=O)c2c1 (stereo partly drawn) [Example 10, (3R)-N-{2-cyano-3-[(3-(4-[4-(2-{4-[2-(2,6-dioxopiperidin-3-yl)-1-oxo-2,3-dihydro-1H-isoindol-5-yl]piperazin-1-yl}ethyl)piperazin-1-yl]phenyl}-4-oxo-3,4-dihydroquinazolin-6-yl)oxy]-4-fluorophenyl}-3-fluoropyrrolidine-1-sulfonamide] | > 0.5 | – | > 0.03 | – | – | – | – | – |
| N#Cc1c(NS(=O)(=O)N2CC[C@@H](F)C2)ccc(F)c1Oc1ccc2ncn(-c3ccc(N4CCN(CC5CCN(c6ccc7c(c6)CN(C6CCC(=O)NC6=O)C7=O)CC5)CC4)cc3)c(=O)c2c1 (stereo partly drawn) [Example 1, (3R)—N-[2-cyano-3-[3-[4-[4-[[1-[2-(2,6-dioxo-3-piperidyl)-1-oxo-isoindolin-5-yl]-4-piperidyl]methyl]piperazin-1-yl]phenyl]-4-oxo-quinazolin-6-yl]oxy-4-fluoro-phenyl]-3-fluoro-pyrrolidine-1-sulfonamide] | 0.005 to 0.05 | 35 to 70 | ≤ 0.001 | 35 to 70 | – | – | – | – |
| N#Cc1c(NS(=O)(=O)N2CC[C@@H](F)C2)ccc(F)c1Oc1ccc2ncn(-c3ccc(N4CCC(c5ccc6c(c5)C(=O)N(C5CCC(=O)NC5=O)C6)CC4)cc3)c(=O)c2c1 (stereo partly drawn) [Example 32, (3R)-N-(2-cyano-3-{[3-(4-{4-[2-(2,6-dioxopiperidin-3-yl)-3-oxo-2,3-dihydro-1H-isoindol-5-yl]piperidin-1-yl}phenyl)-4-oxo-3,4-dihydroquinazolin-6-yl]oxy}-4-fluorophenyl)-3-fluoropyrrolidine-1-sulfonamide] | 0.05 to 0.5 | 35 to 70 | > 0.03 | – | – | – | – | – |
| N#Cc1c(NS(=O)(=O)N2CC[C@@H](F)C2)ccc(F)c1Oc1ccc2ncn(-c3ccc(N4CCN(CC5CCN(c6cccc7c6ccn7C6CCC(=O)NC6=O)CC5)CC4)cc3)c(=O)c2c1 (stereo partly drawn) [Example 74, (3R)—N-{2-cyano-3-[(3-{4-[4-({1-[1-(2,6-dioxopiperidin-3-yl)-1H-indol-4-yl]piperidin-4-yl}methyl)piperazin-1-yl]phenyl}-4-oxo-3,4-dihydroquinazolin-6-yl)oxy]-4-fluorophenyl}-3-fluoropyrrolidine-1-sulfonamide] | 0.05 to 0.5 | 35 to 70 | 0.001 to 0.01 | ≤ 35 | – | – | – | – |

Further lines, results first:

| DC50 (B-RAF V600E [1]) [µM] | Dmax (B-RAF V600E [1]) [%] | DC50 (B-RAF G466V [2]) [µM] | Dmax (B-RAF G466V [2]) [%] | DC50 (B-RAF V600E [3]) [µM] | Dmax (B-RAF V600E [3]) [%] | DC50 (B-RAF G466V [4]) [µM] | Dmax (B-RAF G466V [4]) [%] | Structure (SMILES) |
| --- | --- | --- | --- | --- | --- | --- | --- | --- |
| 0.05 to 0.5 | 35 to 70 | – | – | – | – | – | – | N#Cc1c(NS(=O)(=O)N2CC[C@@H](F)C2)ccc(F)c1Oc1ccc2ncn(-c3ccc(N4CCC(CN5CCC(c6ccc7c(c6)CN([C@H]6CCC(=O)NC6=O)C7=O)CC5)CC4)cc3)c(=O)c2c1 [Example 81, (3R)—N-(2-cyano-3-{[3-(4-{4-[(4-{2-[(3S)-2,6-dioxopiperidin-3-yl]-1-oxo-2,3-dihydro-1H-isoindol-5-yl}piperidin-1-yl)methyl]piperidin-1-yl}phenyl)-4-oxo-3,4-dihydroquinazolin-6-yl]oxy}-4-fluorophenyl)-3-fluoropyrrolidine-1-sulfonamide] |
| – | – | – | – | 0.05 to 0.5 | 35 to 70 | 0.001 to 0.01 | ≤ 35 | N#Cc1c(NS(=O)(=O)N2CC[C@@H](F)C2)ccc(F)c1Oc1ccc2ncn(-c3cnc(N4CCC(CN5CCC6(CC5)CN(c5cccc7c5CN(C5CCC(=O)NC5=O)C7=O)C6)CC4)nc3)c(=O)c2c1 (stereo partly drawn) [Example 131, (3R)-N-{2-cyano-3-[(3-{2-[4-({2-[2-(2,6-dioxopiperidin-3-yl)-1-oxo-2,3-dihydro-1H-isoindol-4-yl]-2,7-diazaspiro[3.5]nonan-7-yl}methyl)piperidin-1-yl]pyrimidin-5-yl}-4-oxo-3,4-dihydroquinazolin-6-yl)oxy]-4-fluorophenyl}-3-fluoropyrrolidine-1-sulfonamide] |
| – | – | – | – | 0.05 to 0.5 | 35 to 70 | 0.001 to 0.01 | 35 to 70 | Cc1c(N2CCC(CN3CCN(c4ccc(-n5cnc6ccc(Oc7c(F)ccc(NS(=O)(=O)N8CC[C@@H](F)C8)c7C#N)cc6c5=O)cc4)CC3)CC2)ccc2c1CN(C1CCC(=O)NC1=O)C2=O (single isomer, unassigned) [Example 111, (3R)-N-(2-cyano-3-{[3-(4-{4-[(1-{2-[(3R*)-2,6-dioxopiperidin-3-yl]-4-methyl-1-oxo-2,3-dihydro-1H-isoindol-5-yl}piperidin-4-yl)methyl]piperazin-1-yl}phenyl)-4-oxo-3,4-dihydroquinazolin-6-yl]oxy}-4-fluorophenyl)-3-fluoropyrrolidine-1-sulfonamide] |
| – | – | – | – | 0.05 to 0.5 | 35 to 70 | 0.001 to 0.01 | ≥ 70 | COc1cc(N2CC(CN3CCN(c4ccc(-n5cnc6ccc(Oc7c(F)ccc(NS(=O)(=O)N8CC[C@@H](F)C8)c7C#N)cc6c5=O)cc4)CC3)C2)cc2c1C(=O)N([C@@H]1CCC(=O)NC1=O)C2 [Example 237, (3R)-N-(2-cyano-3-{[3-(4-{4-[(1-{2-[(3R)-2,6-dioxopiperidin-3-yl]-7-methoxy-1-oxo-2,3-dihydro-1H-isoindol-5-yl}azetidin-3-yl)methyl]piperazin-1-yl}phenyl)-4-oxo-3,4-dihydroquinazolin-6-yl]oxy}-4-fluorophenyl)-3-fluoropyrrolidine-1-sulfonamide] |
